Results reported in patent US20250352603A1, “VALERIAN COMPOSITION FOR SLEEP MANAGEMENT” (OMNIACTIVE HEALTH TECHNOLOGIES LIMITED, priority 2022, published 2025).

What was measured:
Assay type in all cases: in vivo, mice
[1] = system: serum serotonin, dopamine, melatonin; experiment: Serum melatonin, serotonin and dopamine by ELISA kits; details: CM: caffeine then 2 mg/kg i.p.
Method: (§1) Working solutions of caffeine, melatonin, and valerian were prepared on a daily basis and administered intraperitoneally (i.p.). Based on the previous studies caffeine-induced insomnia is dose-dependent with 7.5 mg/kg i.p. caffeine maintaining wakefulness for at least 2 h. Electrical activity of the brain was monitored for 90 minutes following the caffeine injection and spike frequency/spike amplitude analysis was performed via the Labchart 7.3.3 program. Ninety (90) minutes after the caffeine injection, animals were deeply anesthetized with 4% isofluorane (30% O2, remainder N2O). Brains were rapidly removed, frozen on dry ice and stored at −80° C. for further analysis.
(§2) Serum melatonin, serotonin, and dopamine was measured by ELISA kits. Brain levels of MDA was measured by HPLC. Brain activities of SOD, CAT and GPHx was measured using ELISA kits.

GluA1, GluN2A, GluN1 = experiment: Western blot of brain glutamate receptors; details: CM: caffeine then 2 mg/kg i.p.; vs C group
Method: as §1
(§3) Protein concentrations were determined using Western blot analysis. 50 μg of protein was electrophoresed on 4-15% Tris-Glycine polyacrylamide gels and transferred to Immobilon-P PVDF membranes, blocked for 1 h in 5% skim milk and incubated overnight at 4° C. with either GABAAR2, GABAB R1, GABAB-R2, 5H-T1A, GluA1, GluN1, GluN2 A, Bcl-2, Bax, and Caspase-3. Membranes were then incubated with horseradish peroxidase (HRP) conjugated IgG secondary antibody. Bands were quantified using Image software and normalized to actin as a loading control.

[2] = system: GABAAR2, GABAB R1, GABAB R2, 5-HT1A; experiment: Western blot of brain GABAergic and serotonergic receptors; details: CM: caffeine then 2 mg/kg i.p.; vs C group
Method: as §1, §3

[3] = system: brain tissue MDA, SOD, CAT, GPx; experiment: Brain oxidative stress markers (MDA by HPLC; SOD, CAT, GPx by ELISA kits); details: CM: caffeine then 2 mg/kg i.p.; vs C group
Method: as §1, §2

Bax, Bcl-2, Caspase-3 = experiment: Western blot of brain Bax, Bcl-2 and Caspase-3; details: CM: caffeine then 2 mg/kg i.p.; vs C group
Method: as §1, §3

## COc1ccc2[nH]cc(CCNC(C)=O)c2c1 [Melatonin]
[1]; vs C group
  serum dopamine levels: significant increase
  serum serotonin levels: significant increase
[1]; vs all the other groups
  melatonin levels in serum: significantly higher
GluA1, GluN2A, GluN1
  brain GluA1 receptors: significant increase
  brain GluN1 receptors: significant increase
  brain GluN2A receptors: significant increase
[2]
  brain 5-HT1A levels: significantly increased
  brain GABAB R1: significant increase
[3]
  brain CAT: significant increase
  brain GPx: significant increase
  brain MDA levels: significant reduction
  brain SOD: significant increase
Bax, Bcl-2, Caspase-3
  brain Bax: significant increase
  brain Bcl-2: significant decrease
  brain Caspase-3: significant increase
